From patent publication US20030229053A1, “Compounds and methods for the treatment or prevention of flavivirus infections” (Shire BioChem Inc., priority 2001, published 2003)

Molecular target: HCV NS5B RNA-dependent RNA polymerase (Hepatitis C virus genotype 1b, UniProt P26663)
Test: In vitro RNA-dependent RNA polymerase assay (Assay 1), polyA/oligo dT, TCA precipitation
Assay type: biochemical
Details: not given
How it was run: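 Purified NS5B (200 ng) on annealed polyA/oligo dT15 in 20 mM Tris-HCl pH 7.5, 50 mM NaCl, 5 mM MgCl2, 1 mM DTT, 15 µM cold UTP plus [32P]-UTP, 2 h at 22°C. Product TCA-precipitated, filtered onto glass-fibre and counted by liquid scintillation.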

Chain of HCV NS5B RNA-dependent RNA polymerase (P26663 2420-3010 limits assumed): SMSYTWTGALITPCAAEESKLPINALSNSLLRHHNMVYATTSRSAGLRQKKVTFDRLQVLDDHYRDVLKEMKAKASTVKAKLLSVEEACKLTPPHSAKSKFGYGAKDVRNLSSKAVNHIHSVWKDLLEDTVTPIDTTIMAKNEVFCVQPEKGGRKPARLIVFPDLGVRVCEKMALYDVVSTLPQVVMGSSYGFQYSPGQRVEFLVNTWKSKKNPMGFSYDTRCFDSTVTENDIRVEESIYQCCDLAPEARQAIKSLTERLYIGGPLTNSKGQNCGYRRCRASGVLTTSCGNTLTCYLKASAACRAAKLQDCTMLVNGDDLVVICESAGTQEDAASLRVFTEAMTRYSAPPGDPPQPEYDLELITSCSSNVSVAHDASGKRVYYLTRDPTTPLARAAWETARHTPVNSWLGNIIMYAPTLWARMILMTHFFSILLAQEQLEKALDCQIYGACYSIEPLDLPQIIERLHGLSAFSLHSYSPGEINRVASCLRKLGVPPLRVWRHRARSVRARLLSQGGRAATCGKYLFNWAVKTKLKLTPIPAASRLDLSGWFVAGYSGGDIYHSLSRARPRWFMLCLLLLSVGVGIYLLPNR

SMILES | IC50
O=C(O)[C@H](Cc1ccccc1)N(Cc1ccc(Br)s1)C(=O)c1ccc(Cl)cc1Cl [compound #82, (2s)-2-[(5-Bromo-thiophen-2-ylmethyl)-(2,4-dichloro-benzoyl)-amino]-3-phenyl-propionic acid] | < 5 µM
O=C(O)[C@H](Cc1ccccc1)N(Cc1ccc(-c2cc3ccccc3o2)s1)C(=O)c1ccc(Cl)cc1Cl [compound #85, (2s)-2-[(5-Benzofuran-2-yl-thiophen-2-ylmethyl)-(2,4-dichloro-benzoyl)-amino]-3-phenyl-propionic acid] | < 5 µM

Same assay, conditions: polyA/oligo dT template/primer, 200 ng NS5B, 2 h at 22° C.; read-out: RNA pol Assay 1 IC50 (μm)

SMILES | IC50
O=C(O)[C@H](Cc1ccccc1)N(Cc1ccco1)C(=O)c1ccc(Cl)cc1Cl [compound #75, (2s)-2-[(2,4-Dichloro-benzoyl)-furan-2-ylmethyl-amino]-3-phenyl-propionic acid] | 5 to 20 µM
O=C(O)c1ccc(-c2ccc(CN(C(=O)c3ccc(Cl)cc3Cl)[C@@H](Cc3ccccc3)C(=O)O)o2)cc1 [compound #77, (2s)-4-(5-{[(1s-1-Carboxy-2-phenyl-ethyl)-(2,4-dichloro-benzoyl)-amino]-methyl}-furan-2-yl)-benzoic acid] | < 5 µM
O=C(O)[C@H](Cc1ccccc1)N(Cc1ccc(-c2cccc(C(F)(F)F)c2)o1)C(=O)c1ccc(Cl)cc1Br [compound #78, (2s)-2-{(2-Bromo-4-chloro-benzoyl)-[5-(3-trifluoromethyl-phenyl)-furan-2-ylmethyl]-amino}-3-phenyl-propionic acid] | < 5 µM
Cc1cccc(-c2ccc(CN(C(=O)c3ccc(Cl)cc3Cl)[C@@H](Cc3ccccc3)C(=O)O)o2)c1 [compound #80, (2s)-2-[(2,4-Dichloro-benzoyl)-(5-m-tolyl-furan-2-ylmethyl)-amino]-3-phenyl-propionic acid] | < 5 µM
O=C(O)c1ccc(-c2ccc(CN(C(=O)c3ccc(Cl)cc3Cl)[C@@H](Cc3ccccc3)C(=O)O)s2)cc1 [compound #83, (2s)-4-(5-{[(1s-1-Carboxy-2-phenyl-ethyl)-(2,4-dichloro-benzoyl)-amino]-methyl}-thiophen-2-yl)-benzoic acid] | < 5 µM
COC(=O)c1ccc(-c2ccc(CN(C(=O)c3ccc(Cl)cc3Cl)[C@@H](Cc3ccccc3)C(=O)O)s2)cc1 [compound #84, (2s)-4-(5-{[(1-Carboxy-2-phenyl-ethyl)-(2,4-dichloro-benzoyl)-amino]-methyl}-thiophen-2-yl)-benzoic acid methyl ester] | < 5 µM
O=C(O)[C@H](Cc1ccccc1)N(Cc1cc(-c2ccc(Cl)c(F)c2)cs1)C(=O)c1ccc(Cl)cc1Cl [compound #88, (2s)-2-[[4-(4-Chloro-3-fluoro-phenyl)-thiophen-2-ylmethyl]-(2,4-dichloro-benzoyl)-amino]-3-phenyl-propionic acid] | < 5 µM
O=C(O)[C@H](Cc1ccccc1)N(Cc1cc(-c2ccc(F)c(Cl)c2)cs1)C(=O)c1ccc(Cl)cc1Cl [compound #89, (2s)-2-[[4-(3-Chloro-4-fluoro-phenyl)-thiophen-2-ylmethyl]-(2,4-dichloro-benzoyl)-amino]-3-phenyl-propionic acid] | < 5 µM
O=C(O)[C@H](Cc1ccccc1)N(Cc1cc(-c2ccc(Cl)cc2Cl)cs1)C(=O)c1ccc(Cl)cc1Cl [compound #90, (2s) -2-{(2,4-Dichloro-benzoyl)-[4-(2,4-dichloro-phenyl)-thiophen-2-ylmethyl]-amino}-3-phenyl-propionic acid] | < 5 µM
O=C(O)[C@H](Cc1ccccc1)N(Cc1ccc(-c2ccc(Cl)c(F)c2)s1)C(=O)c1ccc(Cl)cc1Cl [compound #92, (2s)-2-[[5-(4-chloro-3-fluoro-phenyl)-thiophen-2-ylmethyl]-(2,4-dichloro-benzoyl)-amino]-3-phenyl-propionic acid] | < 5 µM
O=C(O)[C@H](Cc1ccccc1)N(Cc1ccc(-c2cc(F)cc(F)c2)s1)C(=O)c1ccc(Cl)cc1Cl [compound #95, (2s)-2-{(2,4-Dichloro-benzoyl)-[5-(3,5-difluoro-phenyl)-thiophen-2-ylmethyl]-amino}-3-phenyl-propionic acid] | < 5 µM
O=C(O)[C@H](Cc1ccccc1)N(Cc1cc(Br)cs1)C(=O)c1ccc(Cl)cc1Cl [compound #99, (2s)-2-[(4-Bromo-thiophen-2-ylmethyl)-(2,4-dichloro-benzoyl)-amino]-3-phenyl-propionic acid] | < 5 µM

Results, then the compound that gave them:

IC50 | SMILES
< 5 µM | O=C(O)[C@H](Cc1ccccc1)N(Cc1ccc(-c2nccs2)o1)C(=O)c1ccc(Cl)cc1Cl [compound #74, (2s)-2-[(2,4-Dichloro-benzoyl)-(5-thiazol-2-yl-furan-2-ylmethyl)-amino]-3-phenyl-propionic acid]
< 5 µM | O=C(O)c1cccc(-c2ccc(CN(C(=O)c3ccc(Cl)cc3Cl)[C@@H](Cc3ccccc3)C(=O)O)o2)c1 [compound #76, (2s)-3-(5-{[(1s-1-Carboxy-2-phenyl-ethyl)-(2,4-dichloro-benzoyl)-amino]-methyl}-furan-2-yl)-benzoic acid]
< 5 µM | O=C(O)[C@H](Cc1ccccc1)N(Cc1ccc(-c2cc(F)cc(F)c2)o1)C(=O)c1ccc(Cl)cc1Cl [compound #79, (2s)-2-{(2,4-Dichloro-benzoyl)-[5-(3,5-difluoro-phenyl)-furan-2-ylmethyl]-amino}-3-phenyl-propionic acid]
< 5 µM | O=C(O)[C@H](Cc1ccccc1)N(Cc1ccc(-c2cccc(F)c2)o1)C(=O)c1ccc(Cl)cc1Cl [compound #81, (2s)-2-{(2,4-Dichloro-benzoyl)-[5-(3-fluoro-phenyl)-furan-2-ylmethyl]-amino}-3-phenyl-propionic acid]
< 5 µM | O=C(O)[C@H](Cc1ccccc1)N(Cc1cc(-c2ccc(Cl)c(Cl)c2)cs1)C(=O)c1ccc(Cl)cc1Cl [compound #87, (2s)-2-{(2,4-Dichloro-benzoyl)-[4-(3,4-dichloro-phenyl)-thiophen-2-ylmethyl]-amino}-3-phenyl-propionic acid]
< 5 µM | O=C(O)[C@H](Cc1ccccc1)N(Cc1ccc(-c2ccc(F)c(Cl)c2)s1)C(=O)c1ccc(Cl)cc1Cl [compound #91, (2s)-2-[[5-(3-Chloro-4-fluoro-phenyl)-thiophen-2-ylmethyl]-(2,4-dichloro-benzoyl)-amino]-3-phenyl-propionic acid]
< 5 µM | O=C(O)[C@H](Cc1ccccc1)N(Cc1ccc(-c2ccc(Cl)cc2Cl)s1)C(=O)c1ccc(Cl)cc1Cl [compound #93, (2s)-2-{(2,4-Dichloro-benzoyl)-[5-(2,4-dichloro-phenyl)-thiophen-2-ylmethyl]-amino}-3-phenyl-propionic acid]
< 5 µM | O=C(O)[C@H](Cc1ccccc1)N(Cc1ccc(-c2nccs2)s1)C(=O)c1ccc(Cl)cc1Cl [compound #94, (2s)-2-[(2,4-Dichloro-benzoyl)-(5-thiazol-2-yl-thiophen-2-ylmethyl)-amino]-3-phenyl-propionic acid]
< 5 µM | COc1cccc(-c2ccc(CN(C(=O)c3ccc(Cl)cc3Cl)[C@@H](Cc3ccccc3)C(=O)O)s2)c1 [compound #96, (2s)-2-{(2,4-Dichloro-benzoyl)-[5-(3-methoxy-phenyl)-thiophen-2-ylmethyl]-amino}-3-phenyl-propionic acid]
< 5 µM | O=C(O)[C@H](Cc1ccccc1)N(Cc1ccc(-c2cccc(F)c2)s1)C(=O)c1ccc(Cl)cc1Cl [compound #97, (2s)-2-{(2,4-Dichloro-benzoyl)-[5-(3-fluoro-phenyl)-thiophen-2-ylmethyl]-amino}-3-phenyl-propionic acid]
< 5 µM | O=C(O)[C@H](Cc1ccccc1)N(Cc1cccs1)C(=O)c1ccc(Cl)cc1Cl [compound #98, (2s)-2-[(2,4-Dichloro-benzoyl)-thiophen-2-ylmethyl-amino]-3-phenyl-propionic acid]
5 to 20 µM | O=C(O)[C@H](Cc1ccccc1)N(Cc1cnc(N2CCN(c3ccccc3)CC2)s1)C(=O)c1ccc(Cl)cc1Cl [compound #100, (2s)-2-{(2,4-Dichloro-benzoyl)-[2-(4-phenyl-piperazin-1-yl)-thiazol-5-ylmethyl]-amino}-3-phenyl-propionic acid]
< 5 µM | O=C(O)[C@H](Cc1ccccc1)N(Cc1cnc(N2CCN(Cc3ccccc3)CC2)s1)C(=O)c1ccc(Cl)cc1Cl [compound #102, (2s)-2-[[2-(4-Benzyl-piperazin-1-yl)-thiazol-5-ylmethyl]-(2,4-dichloro-benzoyl)-amino]-3-phenyl-propionic acid]
< 5 µM | O=C(O)[C@H](Cc1ccccc1)N(Cc1cnc(N2CCCCC2)s1)C(=O)c1ccc(Cl)cc1Cl [compound #103, (2s)-2-[(2,4-Dichloro-benzoyl)-(2-piperidin-1-yl-thiazol-5-ylmethyl)-amino]-3-phenyl-propionic acid]
< 5 µM | CCN(CC)c1ncc(CN(C(=O)c2ccc(Cl)cc2Cl)[C@@H](Cc2ccccc2)C(=O)O)s1 [compound #104, (2s)-2-[(2,4-Dichloro-benzoyl)-(2-diethylamino-thiazol-5-ylmethyl)-amino]-3-phenyl-propionic acid]
5 to 20 µM | COc1cc(C)c(S(=O)(=O)N(Cc2c(C(=O)c3ccc(Cl)cc3)oc3ccccc23)[C@@H](Cc2ccccc2)C(=O)O)c(C)c1C [compound #105, (2s)-2-[[2-(4-Chloro-benzoyl)-benzofuran-3-ylmethyl]-(4-methoxy-2,3,6-trimethyl-benzenesulfonyl)-amino]-3-phenyl-propionic acid]
5 to 20 µM | COc1cc(C)c(S(=O)(=O)N(Cc2c(C(F)(F)F)nn(C)c2Oc2ccc(Cl)cc2Cl)[C@@H](Cc2ccccc2)C(=O)O)c(C)c1C [compound #106, (2s)-2-[[5-(2,4-Dichloro-phenoxy)-1-methyl-3-trifluoromethyl-1h-pyrazol-4-ylmethyl]-(4-methoxy-2,3,6-trimethyl-benzenesulfonyl)-amino]-3-phenyl-propionic acid]
